Measured values from article PMC13311170, “Ganaxolone, an approved therapy for CDKL5-deficiency disorder, is an inhibitor of PTP1B” (The Journal of Biological Chemistry, 2026).

Molecular target: T1, PTP1B (Homo sapiens, UniProt P18031)
T1 construct: gene PTPN1; WT PTP1B containing a His-tag
T1 sequence (P18031 1-435): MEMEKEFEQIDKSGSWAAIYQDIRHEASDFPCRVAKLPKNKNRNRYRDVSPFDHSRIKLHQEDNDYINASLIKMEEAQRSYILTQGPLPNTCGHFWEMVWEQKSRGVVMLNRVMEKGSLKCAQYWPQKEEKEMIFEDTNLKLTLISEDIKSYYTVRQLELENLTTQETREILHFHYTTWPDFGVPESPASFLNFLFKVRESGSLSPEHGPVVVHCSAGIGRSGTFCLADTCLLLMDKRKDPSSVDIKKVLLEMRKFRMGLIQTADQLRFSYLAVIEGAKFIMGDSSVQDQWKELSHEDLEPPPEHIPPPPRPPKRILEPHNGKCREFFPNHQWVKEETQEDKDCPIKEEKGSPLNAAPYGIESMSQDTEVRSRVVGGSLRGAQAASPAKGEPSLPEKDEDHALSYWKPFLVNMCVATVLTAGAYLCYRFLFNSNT
Assay: DiFMUP fluorescence phosphatase assay with […] purified PTP1B
Assay type: biochemical

CC(=O)[C@H]1CC[C@H]2[C@@H]3CC[C@H]4C[C@](C)(O)CC[C@]4(C)[C@H]3CC[C@]12C [ganaxolone, 3α-Hydroxy-3β-methyl-5α-pregnan-20-one]
IC50: 600 nM
